Assay results from US6890917B2, “Geldanamycin derivative and method of treating cancer using same” (The United States of America as represented by the …, priority 2001, dated 2005).

Test system: standard panel of 12 human tumor cell lines (NCI-H23, NCI-H522, MDA-MB-231, MDA-MB-435, SW-620, COLO 205, LOX IMVI, UACC-62, OVCAR-3, OVCAR-5, U251, SF295)
Experiment: Hollow fiber assay (HFA) with stable endpoint MTT assay, compound given to mice carrying intraperitoneal and subcutaneous fiber implants
Assay type: in vivo
Design: Total HFA Score: scale not given here
Details: for Total HFA Score / IP Score / SC Score: HFA in mice; for Total HFA Score: IP + SC scores; for IP Score: intraperitoneal fiber implants; for IP Score / SC Score: 2 points per 50% or greater reduction in viable cell mass; for SC Score: subcutaneous fiber implants; for in vivo anti-cancer activity compared with Compound C (in words): intraperitoneal injection, Table 1
Experimental: Compounds A-C were tested in a hollow fiber assay for in vivo activity. Each compound was tested against a standard panel of 12 human tumor cell lines including NCI-H23, NCI-H522, MDA-MB-231, MDA-MB-435, SW-620, COLO 205, LOX IMVI, UACC-62, OVCAR-3, OVCAR-5, U251 and SF295. The cell lines were cultivated in RPMI-1640 containing 10% FBS and 2 mM glutamine. On the day preceding hollow fiber preparation, the cells were given a supplementation of fresh medium to maintain log phase growth. For fiber preparation, the cells were harvested by standard trypsinization technique and resuspended at the desired cell density. The cell suspensions were flushed into 1 mm polyvinylidene fluoride (PVDF) hollow fibers (MW exclusion of 500,000 Da) and subsequently heat-sealed at 2 cm intervals. The samples generated from these seals were placed into tissue culture medium and incubated at 37° C. in 5% CO2 for 24-48 hours prior to implantation. A total of 3 different tumor cell lines were prepared for each experiment so that each mouse received 3 intraperitoneal implants (1 of each tumor cell line) and 3 subcutaneous implants (1 of each tumor cell line). A total of 4 experiments were conducted on each mouse (3 cell lines/experiment×4 experiments=12 cell lines).
On the day of implantation, samples of each tumor cell line were quantitated for viable cell mass by a stable endpoint MTT assay so that the time 0 cell mass was known. In the MTT assay, the fibers were incubated in 6-well plates (1-6 fibers/well) with 3 mL of pre-warmed (37° C.) complete medium containing MTT (1 mg/mL) (Sigma) for 4 hours at 37° C. in 5% CO2. The MTT solution was aspirated and the fibers were washed with 2 mL of saline containing 2.5% protamine sulfate overnight at 4° C. A second wash was performed with 2 mL of saline containing 2.5% protamine sulfate, and the fibers were maintained at 4° C. for a minimum of 2 hours. The fibers were then removed from the protamine sulfate, individually wiped, placed in a 24-well plate (1 fiber/well), cut in half and dried overnight in a biosafety hood. To extract the formazan, DMSO was added (0.25 mL) to each well and the plates were rotated for 4 hours at room temperature. The extracted samples were transferred to 96-well plates and the OD was determined at 540 nm. From these spectrophotomeric measurements, the cytostatic and cytocidal capacities of the test compound were assessed.
Following implantation of the hollow fibers, mice were treated with one of the compounds, as listed in Tables 1 and 2 starting on day 3 or 4 following fiber implantation and continuing once daily for a total of 4 doses. Each compound was either assessed by intraperitoneal injection (Example 1) or by oral administration (Example 2) at 2 dose levels with 3 mice/dose/experiment. Vehicle controls consisted of 6 mice receiving the compound diluent only. The fibers were collected from the mice on the day following the fourth compound treatment and subjected to the stable endpoint MTT assay. The optical density of each sample was determined spectrophotometrically at 540 nm and the mean of each treatment group was calculated. The percent net cell growth in each treatment group was determined and compared to the percent net cell growth in the vehicle treated controls.
In the context of the following examples, compounds were selected for further testing (e.g., time/dose exposure studies, preliminary pharmacology studies, subcutaneous xenograft efficacy studies) on the basis of several hollow fiber assay criteria, including (1) a reduction in net cell growth of 50% or greater in 10 of the 48 possible test combinations; (2) a reduction in net cell growth of 50% or greater in a minimum of 4 of the 24 distant site combinations (SC score); and/or (3) cell kill of 1 or more cell lines in either implant site (reduction in the viable cell mass below the level present at the start of the experiment). […]

[1] = compound by intraperitoneal injection once daily for 4 days, 2 dose levels (A, B: 75 and 50 mg/kg/dose; C: 20 and 13.4 mg/kg/dose)
[2] = compound orally (PO) once daily for 4 days, 75 and 50 mg/kg/dose

SMILES | Total HFA Score [1] | IP Score [1] | SC Score [1] | in vivo anti-cancer activity compared with Compound C (in words) (HFA) | Total HFA Score [2] | IP Score [2] | SC Score [2] | in vivo anti-cancer activity by oral administration (in words) (HFA, oral administration, Table 2)
CO[C@H]1/C=C\C=C(/C)C(=O)NC2=CC(=O)C(NCCN(C)C)=C(C[C@@H](C)C[C@H](OC)[C@H](O)[C@@H](C)/C=C(\C)[C@@H]1OC(N)=O)C2=O [Compound A, 17-Dimethylaminoethylamino-17-demethoxygeldanamycin] | 30 | 20 | 10 | significantly greater in vivo anti-cancer activity |  |  |  | 
CO[C@H]1/C=C\C=C(/C)C(=O)NC2=CC(=O)C(NCCN(C)C)=C(C[C@@H](C)C[C@H](OC)[C@H](O)[C@@H](C)/C=C(\C)[C@@H]1OC(N)=O)C2=O.Cl [Compound B, 17-Demethoxy-17-[[2-(dimethylamino)ethyl]amino]geldanamycin hydrochloride] | 42 | 24 | 18 | significantly greater in vivo anti-cancer activity | 20 | 10 | 10 | significant in vivo anti-cancer activity
CO[C@H]1/C=C\C=C(/C)C(=O)NC2=CC(=O)C(NCCCN(C)C)=C(C[C@@H](C)C[C@H](OC)[C@H](O)[C@@H](C)/C=C(\C)[C@@H]1OC(N)=O)C2=O [Compound C, 17-Dimethylaminopropylamino-17-demethoxygeldanamycin, reference compound] | 16 | 14 | 2 |  |  |  |  | 
